Assay results taken from patent US10716850B2, “Anti-inflammatory factor retentate, method of isolation, and use” (Wellin, Inc., priority 2014, dated 2020).

How the values were obtained:
[1] = test system: carrageenan-induced footpad edema; test: quantitative rat carrageenan footpad assay with 125I-HSA; format: in vivo; conditions: given 30 minutes prior to carrageenan; aspirin orally 200 mg per kilogram, MAIF intraperitoneally, all dosages
Method: Peak I from the G-10 column, supplied by Stolle Milk Biologics International, was prepared according to the methods described in U.S. Pat. No. 4,956,349. Lactose, obtained from commercial sources, was used as placebo. Aspirin was used as a positive control. Aspirin was dissolved in water and given orally by gastric gavage at the ratio of 200 mg per kilogram, a dose known to be active in the assay. […] The footpad assay was modified by using isotopically labeled human serum albumin (^125I-HSA) that localizes in the carrageenan-induced lesion in direct proportion to the volume of the exudate. By determining the total radioactive count in the footpad and comparing this to the counts in a known volume of plasma from the injected animal, a direct measurement of edema in microliters of plasma equivalents is obtained. ^125I-HSA was injected intravenously at a dose of 1.0 microcurie per rat. Female Dark Agouti rats were used. […]
To conduct the carrageenan footpad assay, 0.1 ml of 2% carrageenan was injected subcutaneously into each hind foot pad of an anesthetized rat. […] Both hind feet were then removed and the levels of radioactivity in each foot and in the 200 μl plasma standard were measured in an automated gamma counter. From these measurements the volume of edema in each foot was calculated and expressed in microliters.

[2] = test system: neutrophil migration into the pleural cavity; test: pleural neutrophil migration inhibition assay; format: in vivo, rat; conditions: for dose range of activity in the neutrophil assay: compared together with Peak 12
Method: Neutrophil Migration Inhibition Assay. MAIF anti-inflammatory activity was determined in a pleural neutrophil migration inhibition assay. Female, white laboratory rats weighing 120 to 150 g were injected intrapleurally with 1.0 ml of 1% kappa carrageenin in PBS to induce neutrophil migration into the pleural cavity. Immediately, the rats were injected intraperitoneally with 0.5 ml doses of […] samples in PBS. PBS was used as a control. After four hours, the rats were sacrificed, pleural exudates were collected, and the emigrated neutrophils were counted.

[3] = test system: circulating neutrophils and lymphocytes; test: effect on circulating leucocytes; format: in vivo, rat; conditions: other anti-inflammatory/immunomodulatory agents
Method: Two experiments were done. In the first, the MAIF preparation was administered intravenously at a dose of 40 mg/rat to one group of 6 animals and a control group was injected with saline. Blood samples were obtained at baseline, 1, 4, and 24 hours after treatment.
A further dose-response study was carried out in which a group of rats were injected intravenously with saline, 5, 10 or 20 mg of the MAIF preparation. Blood from each rat had been taken 7 days previously to provide baseline values and was taken again 4 hours after the injection of MAIF. Included on the graph are the results obtained from the sample taken 4 hours after the administration of 40 mg the MAIF preparation (see FIG. 31).

Compound | dose range of activity in the neutrophil assay [2] | effect on circulating leucocytes in the rat [3] | also measured
CC(=O)Oc1ccccc1C(=O)O [aspirin] | active in the high microgram to milligram range | – | footpad edema [1]: inhibited
O=P1(N(CCCl)CCCl)NCCCO1 (stereo not drawn) [cyclophosphamide] | – | depletes both circulating lymphocytes and neutrophils | –
COc1ccc2c(c1)c(CC(=O)O)c(C)n2C(=O)c1ccc(Cl)cc1 [indomethacin] | active in the high microgram to milligram range | – | –
O=C(O)c1cc(=O)[nH]c(=O)[nH]1 [orotic acid] | – | – | inhibitory activity on the migration of rat neutrophils ([2]; in the doses tested): Neither the sialic acid nor the orotic acid exhibited any inhibitory activity
cyclosporin A | – | causes an increase in the number of circulating neutrophils but lymphocyte numbers are either increased or not affected depending on the dose | –
